ChEMBL document CHEMBL5321295, “Targeted Degradation of Alpha-Synuclein by Autophagosome-Anchoring Chimera Peptides” (J Med Chem, 2023)
The source made the active and inactive calls. The calls are words filed in the database; no cut-off is given here. Residues, ends and D or L forms follow the SMILES beside them. *: point of attachment. RhodamineB = CCN(CC)c1ccc2c(-c3ccccc3C(=O)*)c3ccc(=[N+](CC)CC)cc-3oc2c1

Legend:
[1] = system: SH-SY5Y; experiment: Cytotoxicity against wild-type human SH-SY5Y cells assessed as cell viability upto 200 uM incubated for 24 hrs by CCK8 assay; type: functional, cell-based
[2] = target: T1, Alpha-synuclein (Homo sapiens, UniProt P37840); experiment: Induction of alpha-synuclein (unknown origin) degradation overexpressed in HEK293T cells infected with adenovirus expressing mCherry-EGFP-LC3B incubated for 24 hrs by immunoblot analysis; type: cell-based; conditions: for Activity: dose <= 200.0 µM
[3] = Chemical stability of compound in cell culture medium at 50 uM measured for 24 hrs by HPLC analysis; type: physicochemical
[4] = target: T1, Alpha-synuclein; experiment: Binding affinity to biotinylated recombinant alpha-synuclein (unknown origin) assessed as dissociation constant by BLI assay
[5] = system: HEK-293T; experiment: Cytotoxicity against wild-type HEK293T cells assessed as cell viability upto 200 uM incubated for 24 hrs by CCK8 assay; type: toxicity, cell-based; conditions: human
[6] = target: T2, Microtubule-associated protein 1 light chain 3 beta (Homo sapiens, UniProt Q9GZQ8); experiment: Binding affinity to biotinylated recombinant LC3B (unknown origin) assessed as dissociation constant by BLI assay
[7] = target: T1, Alpha-synuclein; experiment: Induction of alpha-synuclein (unknown origin) degradation overexpressed in HEK293T cells at 50 to 100 uM incubated for 24 hrs by immunoblot analysis; type: cell-based; conditions: dose 50-100 µM
[8] = target: T1, Alpha-synuclein; experiment: Induction of EGFP-fused alpha-synuclein (unknown origin) degradation overexpressed in HEK293T cells at 50 uM incubated for 2 hrs by confocal laser scanning microscopy; type: cell-based
[9] = Drug uptake in wild-type HEK293T cells assessed as drug penetration upto 100 uM incubated for 2 hrs by flow cytometry; type: ADME, cell-based; conditions: human, hek-293t
[10] = Drug uptake in wild-type HEK293T cells assessed as drug penetration at 50 uM incubated upto 4 hrs by flow cytometry; type: ADME, cell-based; conditions: human, hek-293t
[11] = Drug localization in HEK293T cells assessed as colocalization of lysosomes at 50 uM incubated for 2 hrs by LyTG staining based confocal laser scanning microscopy; type: ADME, cell-based; conditions: human, hek-293t
[12] = Drug uptake in wild-type HEK293T cells assessed as drug penetration upto 50 uM incubated for 2 hrs by confocal laser scanning microscopy; type: ADME, cell-based; conditions: human, hek-293t
[13] = target: T2, Microtubule-associated protein 1 light chain 3 beta; experiment: Binding affinity to EGFP-fused LC3B (unknown origin) overexpressed in HEK293T cells at 50 uM incubated for 2 hrs by confocal laser scanning microscopy; type: cell-based

Compound | Activity [1] | DC50 [2] | Activity [2] | Stability [3] | Activity [5] | further results
CC[C@H](C)[C@H](NC(=O)[C@H](Cc1ccc(O)cc1)NC(=O)[C@H](CC(=O)O)NC(=O)[C@H](CCC(=O)O)NC(=O)[C@H](CO)NC(=O)[C@H](CO)NC(=O)[C@H](C)NC(=O)[C@H](CO)NC(=O)[C@H](CO)NC(=O)CNC(=O)[C@H](CO)NC(=O)CNC(=O)[C@H](CCCNC(=N)N)NC(=O)[C@@H](NC(=O)[C@H](CCCCN)NC(=O)[C@H](CO)NC(=O)CNC(=O)[C@@H](NC(=O)[C@H](Cc1ccc(O)cc1)NC(=O)[C@H](CC(C)C)NC(=O)[C@@H](NC(=O)CN)C(C)C)C(C)C)[C@@H](C)O)C(=O)N[C@H](C(=O)N[C@H](C(=O)N[C@@H](CC(C)C)C(=O)N1CCC[C@H]1C(=O)N[C@@H](Cc1ccc(O)cc1)C(=O)NCC(=O)N[C@@H](CCCNC(=N)N)C(=O)N[C@@H](CCCCN)C(=O)N[C@@H](CCCCN)C(=O)N[C@@H](CCCNC(=N)N)C(=O)N[C@@H](CCCNC(=N)N)C(=O)N[C@@H](CCC(N)=O)C(=O)N[C@@H](CCCNC(=N)N)C(=O)N[C@@H](CCCNC(=N)N)C(=O)N[C@@H](CCCNC(=N)N)C(=O)O)[C@@H](C)CC)[C@@H](C)CC (H-GVLYVGSKTRGSGSSASSEDYIIILPYGRKKRRQRRR-OH) | inactive | 73.8 µM | Dose-Dependent Effect | Stable | Non-Toxic | Kd [4]: 25.3 µM; Kd [6]: 15.2 µM
CC(C)C[C@H](NC(=O)[C@H](Cc1c[nH]cn1)NC(=O)[C@@H](NC(=O)[C@H](Cc1c[nH]c2ccccc12)NC(=O)[C@H](CC(=O)O)NC(=O)[C@H](CC(=O)O)NC(=O)[C@H](CC(=O)O)NC(=O)CNC(=O)CNC(=O)[C@H](CO)NC(=O)[C@H](CO)NC(=O)CNC(=O)[C@H](CO)NC(=O)CNC(=O)[C@H](CCCNC(=N)N)NC(=O)[C@@H](NC(=O)[C@H](CCCCN)NC(=O)[C@H](CO)NC(=O)CNC(=O)[C@@H](NC(=O)[C@H](Cc1ccc(O)cc1)NC(=O)[C@H](CC(C)C)NC(=O)[C@@H](NC(=O)CN)C(C)C)C(C)C)[C@@H](C)O)[C@@H](C)O)C(=O)N[C@@H](CO)C(=O)N[C@@H](CO)C(=O)N[C@@H](CCCNC(=N)N)C(=O)N[C@@H](CCCNC(=N)N)C(=O)N[C@@H](CCCNC(=N)N)C(=O)N[C@@H](CCCNC(=N)N)C(=O)N[C@@H](CCCNC(=N)N)C(=O)N[C@@H](CCCNC(=N)N)C(=O)N[C@@H](CCCNC(=N)N)C(=O)O (H-GVLYVGSKTRGSGSSGGDDDWTHLSSRRRRRRR-OH) | inactive | 56.8 µM | Dose-Dependent Effect | Stable | Non-Toxic | 
CC(C)C[C@H](NC(=O)CNC(=O)[C@H](Cc1ccc(O)cc1)NC(=O)[C@@H](N)C(C)C)C(=O)N[C@@H](CCCNC(=N)N)C(=O)NCC(=O)N[C@H](C(=O)N[C@@H](CO)C(=O)N[C@H](C(=O)N[C@@H](CCCCN)C(=O)NCC(=O)N[C@@H](CO)C(=O)NCC(=O)N[C@@H](CO)C(=O)N[C@@H](CO)C(=O)NCC(=O)NCC(=O)N[C@@H](CC(=O)O)C(=O)N[C@@H](CC(=O)O)C(=O)N[C@@H](CC(=O)O)C(=O)N[C@@H](Cc1c[nH]c2ccccc12)C(=O)N[C@H](C(=O)N[C@@H](Cc1c[nH]cn1)C(=O)N[C@@H](CC(C)C)C(=O)N[C@@H](CO)C(=O)N[C@@H](CO)C(=O)N[C@@H](Cc1ccc(O)cc1)C(=O)NCC(=O)N[C@@H](CCCNC(=N)N)C(=O)N[C@@H](CCCCN)C(=O)N[C@@H](CCCCN)C(=O)N[C@@H](CCCNC(=N)N)C(=O)N[C@@H](CCCNC(=N)N)C(=O)N[C@@H](CCC(N)=O)C(=O)N[C@@H](CCCNC(=N)N)C(=O)N[C@@H](CCCNC(=N)N)C(=O)N[C@@H](CCCNC(=N)N)C(=O)O)[C@@H](C)O)[C@@H](C)O)C(C)C (H-VYGLRGVSTKGSGSSGGDDDWTHLSSYGRKKRRQRRR-OH) |  |  |  |  |  | Activity [7]: inactive
CCN(CC)c1ccc2c(-c3ccccc3C(=O)NCC(=O)N[C@H](C(=O)N[C@@H](CC(C)C)C(=O)N[C@@H](Cc3ccc(O)cc3)C(=O)N[C@H](C(=O)NCC(=O)N[C@@H](CO)C(=O)N[C@@H](CCCCN)C(=O)N[C@H](C(=O)N[C@@H](CCCNC(=N)N)C(=O)NCC(=O)N[C@@H](CO)C(=O)NCC(=O)N[C@@H](CO)C(=O)N[C@@H](CO)C(=O)NCC(=O)NCC(=O)N[C@@H](CC(=O)O)C(=O)N[C@@H](CC(=O)O)C(=O)N[C@@H](CC(=O)O)C(=O)N[C@@H](Cc3c[nH]c4ccccc34)C(=O)N[C@H](C(=O)N[C@@H](Cc3c[nH]cn3)C(=O)N[C@@H](CC(C)C)C(=O)N[C@@H](CO)C(=O)N[C@@H](CO)C(=O)N[C@@H](Cc3ccc(O)cc3)C(=O)NCC(=O)N[C@@H](CCCNC(=N)N)C(=O)N[C@@H](CCCCN)C(=O)N[C@@H](CCCCN)C(=O)N[C@@H](CCCNC(=N)N)C(=O)N[C@@H](CCCNC(=N)N)C(=O)N[C@@H](CCC(N)=O)C(=O)N[C@@H](CCCNC(=N)N)C(=O)N[C@@H](CCCNC(=N)N)C(=O)N[C@@H](CCCNC(=N)N)C(=O)O)[C@@H](C)O)[C@@H](C)O)C(C)C)C(C)C)c3ccc(=[N+](CC)CC)cc-3oc2c1.[Cl-] (RhodamineB-GVLYVGSKTRGSGSSGGDDDWTHLSSYGRKKRRQRRR-OH) |  |  |  |  |  | Activity [8]: Active; Drug uptake [9]: Active; Drug uptake [10]: Active; Drug uptake [11]: Active; Drug uptake [12]: Active; Activity [13]: Active
CC[C@H](C)[C@H](NC(=O)[C@H](CCC(=O)O)NC(=O)[C@@H](NC(=O)[C@H](Cc1ccccc1)NC(=O)[C@H](CO)NC(=O)[C@H](CC(=O)O)NC(=O)[C@H](CCC(=O)O)NC(=O)[C@H](CO)NC(=O)[C@H](CO)NC(=O)CNC(=O)[C@H](CO)NC(=O)CNC(=O)[C@H](CO)NC(=O)CNC(=O)[C@H](CCCNC(=N)N)NC(=O)[C@@H](NC(=O)[C@H](CCCCN)NC(=O)[C@H](CO)NC(=O)CNC(=O)[C@@H](NC(=O)[C@H](Cc1ccc(O)cc1)NC(=O)[C@H](CC(C)C)NC(=O)[C@@H](NC(=O)CN)C(C)C)C(C)C)[C@@H](C)O)C(C)C)C(=O)N[C@@H](CCCNC(=N)N)C(=O)N[C@@H](CCSC)C(=O)N[C@@H](Cc1ccc(O)cc1)C(=O)NCC(=O)N[C@@H](CCCNC(=N)N)C(=O)N[C@@H](CCCCN)C(=O)N[C@@H](CCCCN)C(=O)N[C@@H](CCCNC(=N)N)C(=O)N[C@@H](CCCNC(=N)N)C(=O)N[C@@H](CCC(N)=O)C(=O)N[C@@H](CCCNC(=N)N)C(=O)N[C@@H](CCCNC(=N)N)C(=O)N[C@@H](CCCNC(=N)N)C(=O)O (H-GVLYVGSKTRGSGSGSSEDSFVEIRMYGRKKRRQRRR-OH) | inactive | 140 µM | Dose-Dependent Effect | Stable | Non-Toxic | Kd [4]: 41.6 µM; Kd [6]: 17.2 µM
CC(C)C[C@H](NC(=O)[C@@H](NC(=O)CN)C(C)C)C(=O)N[C@@H](Cc1ccc(O)cc1)C(=O)N[C@H](C(=O)NCC(=O)N[C@@H](CO)C(=O)N[C@@H](CCCCN)C(=O)N[C@H](C(=O)N[C@@H](CCCNC(=N)N)C(=O)NCC(=O)N[C@@H](CO)C(=O)NCC(=O)N[C@@H](CO)C(=O)N[C@@H](CO)C(=O)NCC(=O)NCC(=O)N[C@@H](CC(=O)O)C(=O)N[C@@H](CC(=O)O)C(=O)N[C@@H](CC(=O)O)C(=O)N[C@@H](Cc1c[nH]c2ccccc12)C(=O)N[C@H](C(=O)N[C@@H](Cc1c[nH]cn1)C(=O)N[C@H](C(=O)N[C@@H](CO)C(=O)N[C@@H](CO)C(=O)N[C@@H](Cc1ccc(O)cc1)C(=O)NCC(=O)N[C@@H](CCCNC(=N)N)C(=O)N[C@@H](CCCCN)C(=O)N[C@@H](CCCCN)C(=O)N[C@@H](CCCNC(=N)N)C(=O)N[C@@H](CCCNC(=N)N)C(=O)N[C@@H](CCC(N)=O)C(=O)N[C@@H](CCCNC(=N)N)C(=O)N[C@@H](CCCNC(=N)N)C(=O)N[C@@H](CCCNC(=N)N)C(=O)O)C(C)C)[C@@H](C)O)[C@@H](C)O)C(C)C (H-GVLYVGSKTRGSGSSGGDDDWTHVSSYGRKKRRQRRR-OH) |  |  |  |  |  | Activity [7]: inactive
CCN(CC)c1ccc2c(-c3ccccc3C(=O)NCC(=O)N[C@H](C(=O)N[C@@H](CC(C)C)C(=O)N[C@@H](Cc3ccc(O)cc3)C(=O)N[C@H](C(=O)NCC(=O)N[C@@H](CO)C(=O)N[C@@H](CCCCN)C(=O)N[C@H](C(=O)N[C@@H](CCCNC(=N)N)C(=O)NCC(=O)N[C@@H](CO)C(=O)NCC(=O)N[C@@H](CO)C(=O)N[C@@H](CO)C(=O)NCC(=O)NCC(=O)N[C@@H](CC(=O)O)C(=O)N[C@@H](CC(=O)O)C(=O)N[C@@H](CC(=O)O)C(=O)N[C@@H](Cc3c[nH]c4ccccc34)C(=O)N[C@H](C(=O)N[C@@H](Cc3c[nH]cn3)C(=O)N[C@@H](CC(C)C)C(=O)N[C@@H](CO)C(=O)N[C@@H](CO)C(=O)N[C@@H](CCCNC(=N)N)C(=O)N[C@@H](CCCNC(=N)N)C(=O)N[C@@H](CCCNC(=N)N)C(=O)N[C@@H](CCCNC(=N)N)C(=O)N[C@@H](CCCNC(=N)N)C(=O)N[C@@H](CCCNC(=N)N)C(=O)N[C@@H](CCCNC(=N)N)C(=O)O)[C@@H](C)O)[C@@H](C)O)C(C)C)C(C)C)c3ccc(=[N+](CC)CC)cc-3oc2c1.[Cl-] (RhodamineB-GVLYVGSKTRGSGSSGGDDDWTHLSSRRRRRRR-OH) |  |  |  |  |  | Drug uptake [9]: Active; Drug uptake [12]: Active
